Reference: patent publication US20140323500A1, “NADPH OXIDASE 4 INHIBITORS AND USE THEREOF” (GENKYOTEX SA, priority 2011, published 2014)

Columns and labels:
human Nox2 = target: T1, human Nox2 (Homo sapiens, UniProt P04839); assay: ROS production by membranes expressing human Nox2, cell-free Amplex Red assay; type: biochemical; conditions: cell-free membranes, Amplex Red; Cheng-Prusoff; average of at least three experiments in triplicate; read-out: Ki hNox2
T1 construct: host or cells: T-REx-CHO (hNOX2 T-REx-CHO), tetracycline-induced; membrane fraction
T1 sequence (P04839 2-570 limits assumed): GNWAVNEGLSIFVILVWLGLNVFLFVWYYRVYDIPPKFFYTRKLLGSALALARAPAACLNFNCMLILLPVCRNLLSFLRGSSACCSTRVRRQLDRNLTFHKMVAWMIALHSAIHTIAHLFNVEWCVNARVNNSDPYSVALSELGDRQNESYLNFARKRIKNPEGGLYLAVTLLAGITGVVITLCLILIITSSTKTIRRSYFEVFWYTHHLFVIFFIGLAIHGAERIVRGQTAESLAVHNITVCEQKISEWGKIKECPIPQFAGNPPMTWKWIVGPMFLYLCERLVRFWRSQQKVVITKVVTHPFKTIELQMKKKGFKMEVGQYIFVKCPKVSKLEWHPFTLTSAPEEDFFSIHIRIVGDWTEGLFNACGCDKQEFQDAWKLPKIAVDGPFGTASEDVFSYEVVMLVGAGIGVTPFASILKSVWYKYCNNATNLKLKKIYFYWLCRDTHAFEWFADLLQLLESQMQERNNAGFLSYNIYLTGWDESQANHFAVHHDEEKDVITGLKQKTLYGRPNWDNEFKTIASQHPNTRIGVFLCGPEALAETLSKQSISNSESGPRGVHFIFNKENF
T1 sequence (P13498 2-195 partner limits assumed): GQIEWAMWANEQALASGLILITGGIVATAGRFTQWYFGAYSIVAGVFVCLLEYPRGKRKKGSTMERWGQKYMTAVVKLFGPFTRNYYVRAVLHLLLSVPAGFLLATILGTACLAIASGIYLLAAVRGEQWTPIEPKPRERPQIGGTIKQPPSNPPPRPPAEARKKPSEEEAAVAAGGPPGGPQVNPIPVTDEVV
Source text: (§1) The Nox4 activity of Nox4 inhibitors according to the invention may be tested for their activity in the inhibition or reduction of formation of reactive oxygen species (ROS) from oxygen in cell free assays. In order to fully characterise Nox4 inhibitors, Nox subunit-specific cell-free, membrane-based systems have been developed and specific recombinant proteins have been added to membranes heterologously over-expressing their specific iso form. Nox enzymes produce superoxide (O2.−) as primary product, however due to the high instability and reactivity of this molecule which dismutates naturally into hydrogen peroxide (H2O2), therefore, read-out techniques involving probes that do measure H2O2 were used (e.g. using Amplex Red as a probe in order to facilitate consistent and accurate measurements). The activity of the compounds is tested in the following cell free assay using the techniques described here below:
Human Nox1 (NM_007052.4), human NOX2 (NM_000397), and human NOX5 (NM_0245052244) cDNAs were cloned into the pcDNA5/TO (Invitrogen). Human p22 (NM_000101.2) was cloned into pcDNA3.1/Zeo (+) (Invitrogen), and human NOXA1 (AY255769.1) and human NOXO1 (AB097667) were cloned into the bi-cistronic pVITRO1-neo-mcs plasmid (Invivogen).
Cells were transfected by using the FuGENE 6 method. Cells stably expressing functional human Nox1 (hNOX1 T-REx™-CHO) were obtained by co-transfecting T-REx™-CHO cells with human Nox1, human p22, human NOXA1 and human NOXO1. Cells stably expressing functional human Nox2 (hNOX2 T-REx™-CHO) were obtained by co-transfecting T-REx™-CHO cells with human nox2, human p22 and human cofactors. Cells stably expressing functional human Nox5 (hNOX5 T-REx™-CHO) were obtained by transfecting T-REx™-CHO cells with human Nox5. Co-transfected cells were selected with the appropriate antibiotics for 10 days. For the selection, hygromycin and G418 were used at 2 mg/ml and zeocin at 0.1 mg/ml. For the establishment of each stably transfected cell line, a pool of antibiotic-resistant cells was generated. Cells were cloned by limiting dilution. Several clones were established and investigated for ROS production upon tetracycline-induced hNox expression using a cellular AR assay. The expression of NOXes was done with tetracycline (1 μg/ml) during 24 h prior to the assay.
(§2) Human Nox1, Nox2, Nox4, and Nox5 expression were induced with Tetracycline (1 μg/ml) during 24 h prior to the membrane preparation Membranes from transfected cells overexpressing Nox1, Nox2, Nox4 or Nox5 were prepared as previously described in Palicz et al., 2001, J. Biol. Chem., 76, 3090-3097. After resuspension in sonication buffer (11% sucrose, 120 mM NaCl, 1 mM EGTA in PBS, pH 7.4 for Nox4- or NOX5-expressing cells) or in relax buffer (10 mM Pipes, 3 mM NaCl, 3.5 mM MgCl2, 0.1M KCl, pH 7.4), cells were broken by sonication and centrifuged (200 g, 10 min). The supernatant was layered onto a 17/40% (w/v) discontinuous sucrose gradient and centrifuged (150,000×g for 60 min). Membrane fractions were collected from the 17/40% interface and were stored at −80° C. Protein concentration was determined with the Bradford reagent.
(§3) Reactive Oxygen Species (ROS) production by membranes expressing either human Nox1, or human Nox2 or human Nox4 or human Nox5 or by xanthine/xanthine oxidase were measured using the Amplex Red (AR) method following a slightly modified version of the manufacturer's instruction manual (Invitrogen). Briefly, membranes or xanthine were incubated in PBS with Amplex Red, Horse Radish Peroxidase (HRP) and appropriated co-factors. ROS production was induced by addition of NADPH to NOX-expressing membrane or by addition of xanthine to xanthine oxidase. Non-specific signal was measured in the absence of membranes or in the absence of xanthine.
Antagonist activity of compounds was measured in the presence of increasing concentrations ranging from 1 nM to 100 μM. […]

human Nox4 = target: T2, human Nox4 (Homo sapiens, UniProt Q9NPH5); assay: ROS production by membranes expressing human Nox4, cell-free Amplex Red assay; type: biochemical; conditions: cell-free membranes, Amplex Red; Cheng-Prusoff; average of at least three experiments in triplicate; read-out: Ki hNox4
T2 construct: expressed in transfected cells; host or cells: T-REx-293 (hNOX4 T-REx-293), tetracycline-induced; membrane fraction
T2 sequence (Q9NPH5 1-578): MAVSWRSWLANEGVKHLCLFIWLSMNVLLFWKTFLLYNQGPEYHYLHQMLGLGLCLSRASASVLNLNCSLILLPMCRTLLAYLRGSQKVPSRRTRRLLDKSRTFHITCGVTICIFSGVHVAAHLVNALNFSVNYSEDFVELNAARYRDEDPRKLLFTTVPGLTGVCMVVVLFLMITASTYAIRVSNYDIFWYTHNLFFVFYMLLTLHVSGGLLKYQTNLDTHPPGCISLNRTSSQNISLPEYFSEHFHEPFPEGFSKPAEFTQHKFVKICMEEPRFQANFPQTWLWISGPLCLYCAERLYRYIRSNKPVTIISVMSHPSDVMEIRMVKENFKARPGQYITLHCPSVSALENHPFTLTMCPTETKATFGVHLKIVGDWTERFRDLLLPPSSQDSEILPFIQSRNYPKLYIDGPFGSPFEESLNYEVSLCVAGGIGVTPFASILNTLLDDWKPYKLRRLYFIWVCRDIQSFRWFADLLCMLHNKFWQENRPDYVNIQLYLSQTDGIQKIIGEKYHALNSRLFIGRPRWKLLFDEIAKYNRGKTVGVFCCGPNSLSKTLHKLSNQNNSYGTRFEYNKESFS
T2 sequence (P13498 2-195 partner limits assumed): T1 sequence (P13498 2-195 partner limits assumed)
Source text: as §1
Transfected T-REx™-CHO cells (R718-07) purchased from Invitrogen and T-REx™-293 cell line expressing hNOX4 (hNOX4 T-REx™-293) (Serrander et al., 2007, Biochem. J., 406, 105-114) were cultured in […]. Both media were supplemented with 10% FBS, 2 mM glutamine, penicillin (100 U/ml) and streptomycin (100 μg/ml). Selection pressure was maintained by continuous inclusion of blasticidin (5 μg/ml), and/or G418 (0.25 mg/ml), and/or Hygromycin (0.25 mg/ml) and/or zeocin (0.025 mg/ml).
as §2, §3
Antagonist activity of compounds was measured in the presence of increasing concentrations ranging from 1 nM to 100 μM. After an incubation of 20 min in a plate shaker and incubator (Titramax 1000, VWR) at 37° C. with weak agitation (300 rpm), ROS levels were measured for 10 min in a BMG Fluostar microplate reader with excitation and emission wavelengths of 544 nm and 590 nm respectively.
Data were analysed using Prism (GraphPad Software Inc., San Diego, Calif.). Ki values were calculated using the Cheng-Prusoff equation and represent the average of at least three individual experiments performed in triplicate (Table 1). Nox4 inhibition was compared to that measured for Simvastatin (Enzo Life Sciences, CAS Number 79902-63-9) using the method described in Example 1. Reactive Oxygen Species (ROS) production by membranes expressing human Nox4 was measured using the Amplex Red (AR).

Structure (SMILES) | Ki (human Nox2) | Ki (human Nox4)
COc1ccc(-c2c3c(=O)n(-c4ccccc4Cl)[nH]c3cc(=O)n2Cc2ccn(C)n2)c(F)c1 [(4), 2-(2-chlorophenyl)-4-(2-fluoro-4-methoxyphenyl)-5-[(1-methyl-1H-pyrazol-3-yl)methyl]-1H-pyrazolo[4,3-c]pyridine-3,6(2H,5H)-dione] | 813 nM | 61 nM
COc1ccc(F)c(-c2c3c(=O)n(-c4ccccc4OC)[nH]c3cc(=O)n2Cc2cccnc2)c1 [(5), 4-(2-fluoro-5-methoxyphenyl)-2-(2-methoxyphenyl)-5-(pyridin-3-ylmethyl)-1H-pyrazolo[4,3-c]pyridine-3,6(2H,5H)-dione] | 730 nM | 63 nM
COc1ccccc1-n1[nH]c2cc(=O)n(Cc3cccnc3)c(C)c2c1=O [(7), 2-(2-methoxyphenyl)-4-methyl-5-(pyridin-3-ylmethyl)-1H-pyrazolo[4,3-c]pyridine-3,6(2H,5H)-dione] | 1170 nM | 72 nM
COc1ccccc1-n1[nH]c2cc(=O)n(Cc3cccnc3)c(-c3ccc(Cl)cc3F)c2c1=O [(8), 4-(4-chloro-2-fluorophenyl)-2-(2-methoxyphenyl)-5-(pyridin-3-ylmethyl)-1H-pyrazolo[4,3-c]pyridine-3,6(2H,5H)-dione] | 750 nM | 73 nM
COc1ccc(F)c(-c2c3c(=O)n(-c4ccccc4OC)[nH]c3cc(=O)n2Cc2ccn(C)n2)c1 [(13), 4-(2-fluoro-5-methoxyphenyl)-2-(2-methoxyphenyl)-5-[(1-methyl-1H-pyrazol-3-yl)methyl]-1H-pyrazolo[4,3-c]pyridine-3,6(2H,5H)-dione] | 985 nM | 80 nM
Cc1c2c(=O)n(-c3ccccc3Cl)[nH]c2cc(=O)n1Cc1cccnc1 [(15), 2-(2-chlorophenyl)-4-methyl-5-(pyridin-3-ylmethyl)-1H-pyrazolo[4,3-c]pyridine-3,6(2H,5H)-dione] | 907 nM | 83 nM

Now from value to molecule:

Ki (human Nox2) | Ki (human Nox4) | Structure (SMILES)
715 nM | 69 nM | COc1cc(Cn2c(C)c3c(=O)n(-c4ccccc4Cl)[nH]c3cc2=O)ccn1 [(6), 2-(2-chlorophenyl)-5-[(2-methoxypyridin-4-yl)methyl]-4-methyl-1H-pyrazolo[4,3-c]pyridine-3,6(2H,5H)-dione]
650 nM | 74 nM | O=c1c2c(-c3cc(Cl)ccc3F)n(Cc3cccnc3)c(=O)cc2[nH]n1-c1ccccc1Cl [(9), 4-(5-chloro-2-fluorophenyl)-2-(2-chlorophenyl)-5-(pyridin-3-ylmethyl)-1H-pyrazolo[4,3-c]pyridine-3,6(2H,5H)-dione]
700 nM | 74 nM | COc1ccc(Cn2c(C)c3c(=O)n(-c4ccccc4Cl)[nH]c3cc2=O)cn1 [(10), 2-(2-chlorophenyl)-5-[(6-methoxypyridin-3-yl)methyl]-4-methyl-1H-pyrazolo[4,3-c]pyridine-3,6(2H,5H)-dione]
563 nM | 75 nM | O=c1c2c(-c3ccc(Cl)cc3F)n(Cc3cccnc3)c(=O)cc2[nH]n1-c1ccccc1Cl [(11), 4-(4-chloro-2-fluorophenyl)-2-(2-chlorophenyl)-5-(pyridin-3-ylmethyl)-1H-pyrazolo[4,3-c]pyridine-3,6(2H,5H)-dione]
695 nM | 81 nM | COc1ccccc1-n1[nH]c2cc(=O)n(Cc3cccnc3)c(-c3cc(Cl)ccc3F)c2c1=O [(14), 4-(5-chloro-2-fluorophenyl)-2-(2-methoxyphenyl)-5-(pyridin-3-ylmethyl)-1H-pyrazolo[4,3-c]pyridine-3,6(2H,5H)-dione]
720 nM | 85 nM | O=c1c2c(-c3ccc(Cl)cc3)n(Cc3cnccn3)c(=O)cc2[nH]n1-c1ccccc1Cl [(16), 2-(2-chlorophenyl)-4-(4-chlorophenyl)-5-(pyrazin-2-ylmethyl)-1H-pyrazolo[4,3-c]pyridine-3,6(2H,5H)-dione]
602 nM | 88 nM | O=c1c2c(-c3ccccc3F)n(Cc3cccnc3)c(=O)cc2[nH]n1-c1ccccc1Cl [(17), 2-(2-chlorophenyl)-4-(2-fluorophenyl)-5-(pyridin-3-ylmethyl)-1H-pyrazolo[4,3-c]pyridine-3,6(2H,5H)-dione]
